The source of these data is ChEMBL document CHEMBL1151526, “3-Acetoxy-2,2-bi-1H-indol as a novel inhibitor of ATP binding to DnaA, the protein initiating chromosomal replication in escherichia coli” (Bioorg Med Chem Lett, 1994).

Molecules are shown by their SMILES.

A short description of this experiment: Inhibition of [alpha-32P]ATP binding to DnaA protein purified from Escherichia coli.
As a reminder, the IC50 is the midpoint of a concentration-inhibition curve. High values mean weaker potency, low ones greater potency. Regarding `CC(=O)Oc1c(-c2cc3ccccc3[nH]2)[nH]c2ccccc12`, the IC50 came to 40 µM. Turning to `CCOc1c(-c2cc3ccccc3[nH]2)[nH]c2ccccc12`, the IC50 stood at 200 µM.

In turn, `O=C1/C(=C2\Nc3ccccc3C2=O)Nc2ccccc21` [INDIGO] returned an IC50 of 200 µM.

Molecule `O=C1C(c2c[nH]c3ccccc23)=C(c2c[nH]c3ccccc23)C(=O)N1Cc1ccccc1` showed an IC50 above 10000 µM.

`CC(=O)Oc1c(-c2c(C(C)=O)c3ccccc3n2C(C)=O)[nH]c2ccccc12` gave an IC50 of 1500 µM. In turn, `CN(C)CCCn1cc(C2=C(c3c[nH]c4ccccc34)C(=O)NC2=O)c2ccccc21` [GF-109203] registered an IC50 of 3000 µM. `c1ccc2[nH]ccc2c1` [INDOLE] came in with an IC50 above 10000 µM.

`CC(c1ccccc1)N1C(=O)c2c(c3c4ccccc4[nH]c3c3[nH]c4ccccc4c23)C1=O` (stereo not given) had an IC50 of 5000 µM. In other words, the millimolar range. Under `O=C1NC(=O)C(c2c[nH]c3ccccc23)=C1c1c[nH]c2ccccc12` [RO-316233] stands 1000 µM; under `Nc1ncnc2c1ncn2[C@@H]1O[C@H](CO)[C@@H](O)[C@H]1O` [ADENOSINE], above 10000 µM.
